pKd: −log10 of the molar value.

A word on the pKd: it is the Kd on a negative log10 scale, so that one unit is a factor of ten. Higher therefore signals a small Kd.

Assay [1] has as its target T1, Human PPARγ2 (Homo sapiens, UniProt P37231).
T1 construct: The full length human cDNA for PPARγ2 and PPARδ were subcloned into the PGEX-2T and PGEX-KT, respectively, expression vector; made in house; host or cells: E. coli (pGEX-2T vector, Pharmacia)
T1 sequence (P37231 1-505): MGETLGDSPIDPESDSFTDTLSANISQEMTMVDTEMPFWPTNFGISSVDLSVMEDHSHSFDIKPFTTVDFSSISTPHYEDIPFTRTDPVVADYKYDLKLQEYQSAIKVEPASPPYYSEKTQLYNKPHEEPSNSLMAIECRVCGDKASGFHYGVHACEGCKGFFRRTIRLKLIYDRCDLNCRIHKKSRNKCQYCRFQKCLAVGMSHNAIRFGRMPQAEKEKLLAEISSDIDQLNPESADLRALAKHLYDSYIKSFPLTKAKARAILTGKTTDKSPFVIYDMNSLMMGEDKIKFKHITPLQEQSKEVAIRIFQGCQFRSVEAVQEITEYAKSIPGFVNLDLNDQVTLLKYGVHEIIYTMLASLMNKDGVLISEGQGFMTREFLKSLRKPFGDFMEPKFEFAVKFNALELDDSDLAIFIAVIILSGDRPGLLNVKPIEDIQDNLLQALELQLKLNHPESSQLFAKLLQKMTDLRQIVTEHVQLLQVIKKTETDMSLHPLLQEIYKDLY
The assay can be described thus: [3H]AD-5075 displacement (receptor binding) assay. The note with it: gst-fusion receptor, 10 nM [3H2]AD-5075, ~16 h at 4 °C. On the procedure:
Human PPARγ2 and PPARδ, independently, were prepared as gst-fusion proteins in E. coli. The full length human cDNA for PPARγ2 and PPARδ were subcloned into the PGEX-2T and PGEX-KT, respectively, expression vector (Pharmacia). E. coli containing the plasmid were grown, induced, and then harvested by centrifugation. The resuspended pellet was broken in a French press and debris was removed by centrifugation at 12,000Xg. Receptors were purified from the supernatant by affinity chromatography on glutathione sepharose. After application to the column, and 1 wash, receptor was eluted with glutathione. Glycerol was added to stabilize the receptor and aliquots were frozen at -80 °C for later use.
For each assay, an aliquot of receptor (1:1000-1:3000 dilution) was incubated in TEGM (10 mM Tris, pH 7.2, 1 mM EDTA, 10% glycerol, 7 µl/100 ml β-mercaptoethanol, 10 mM Na molybdate, 1 mM dithiothreitol, 5 µg/ml aprotinin, 2 µg/ml leupeptin, 2 µg/ml benzamide and 0.5 mM PMSF) containing 5-10% COS-1 cell cytoplasmic lysate and 10 nM labeled thiazolidinedione ([^3H2]AD-5075, 21 Ci/mmole), ± test compound compound, [^3H2]Example 11, 17 Ci/mmole), ± test compound, respectively. Assays were incubated for ∼16 h at 4 °C in a final volume of 300 µl. […] After centrifugation at 3000 rpm for 10 min at 4 °C, 200 µl of the supernatant fraction was counted in a liquid scintillation counter. […]

Assay [2] addresses T2, Human PPARδ (Homo sapiens, UniProt Q03181).
T2 construct: The full length human cDNA for PPARγ2 and PPARδ were subcloned into the PGEX-2T and PGEX-KT, respectively, expression vector; made in house; host or cells: E. coli (pGEX-KT vector, Pharmacia)
T2 sequence (Q03181 1-441): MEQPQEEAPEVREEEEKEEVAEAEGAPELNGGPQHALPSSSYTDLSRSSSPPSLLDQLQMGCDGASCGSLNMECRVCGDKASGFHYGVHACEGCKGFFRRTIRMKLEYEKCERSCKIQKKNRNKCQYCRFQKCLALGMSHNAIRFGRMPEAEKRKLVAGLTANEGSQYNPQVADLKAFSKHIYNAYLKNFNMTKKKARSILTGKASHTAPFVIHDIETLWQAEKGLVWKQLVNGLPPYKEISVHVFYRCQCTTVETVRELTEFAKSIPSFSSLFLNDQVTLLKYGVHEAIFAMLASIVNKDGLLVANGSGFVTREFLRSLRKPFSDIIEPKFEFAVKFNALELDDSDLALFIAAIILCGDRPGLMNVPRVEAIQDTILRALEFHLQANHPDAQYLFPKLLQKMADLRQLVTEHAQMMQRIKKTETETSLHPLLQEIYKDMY
The assay can be described thus: [3H2]Example 11 displacement (receptor binding) assay. The following applies: gst-fusion receptor, [3H2]Example 11, ~16 h at 4 °C. On the procedure: The hPPARδ binding assay comprises the steps of: • (a) preparing multiple test samples by incubating separate aliquots of the receptor hPPARδ with a test compound in TEGM containing 5-10% COS-1 cell cytoplasmic lysate and 2.5 nM labeled ([^3H2]Compound D, 17 Ci/mmole) for a minimum of 12 hours, and preferably for about 16 hours, at 4 °C, wherein the concentration of the test compound in each test sample is different, and preparing a control sample by incubating a further separate aliquot of the receptor hPPARδ under the same conditions but without the test compound; then • (b) removing unbound ligand by adding dextran/gelatin-coated charcoal to each sample while maintaining the samples at 4 °C and allowing at least 10 minutes to pass, then • (c) subjecting each of the test samples and the control sample from step (b) to centrifugation at 4 °C until the charcoal is pelleted; then • (d) counting a portion of the supernatant fraction of each of the test samples and the control sample from step (c) in a liquid scintillation counter and analyzing the results to determine the IC50 of the test compound.
Human PPARγ2 and PPARδ, independently, were prepared as gst-fusion proteins in E. coli. The full length human cDNA for PPARγ2 and PPARδ were subcloned into the PGEX-2T and PGEX-KT, respectively, expression vector (Pharmacia). […]

For the compound `Cc1oc(-c2ccccc2)nc1C(O)COc1ccc(CC2SC(=O)NC2=O)cc1` (centres unmarked) [AD-5075], the pKd in assay [1] is 9.00.

Turning to `CCCc1c(OCCC[S+]([O-])c2ccc(CC(=O)OC)cc2Cl)ccc2c(CC)noc12` (centres unmarked) [Example 11, Methyl 3-chloro-4-(3-(3-ethyl-7-propyl-6-benz-[4,5]-isoxazoloxy)-propylthio)phenylacetate S-oxide], the negative-log Kd (pKd) in assay [2] is 9.00.

(Values after patent EP0882029B1, “HETEROCYCLIC DERIVATIVES AS ANTIDIABETIC AND ANTIOBESITY AGENTS” (MERCK & CO., INC., priority 1996, dated 1997).)
